Assay results: patent US20200222474A1, “COMPOSITIONS AND METHODS FOR INCREASING PHYTOCHEMICAL BIOAVAILABLITY AND BIOACTIVITY” (North Carolina State University, priority 2017, published 2020)

Columns and labels:
NCK2422 (ΔLBA0725) = experiment: Phenotypic growth analysis of deletion mutant (PTS EIICBA); format: cell-based, Lactobacillus acidophilus; conditions: for growth of the ΔLBA0725 mutant (inactive PTS EIICBA): compared with background Δupp strain
Protocol: (§1) Phenotypic growth assays were performed using 1% (v/v) overnight cultures of L. acidophilus strains (Table 2) and other Lactobacillus species (Table 3) grown on SDM supplemented with 1% (w/v) glucose to inoculate 200 μL of SDM supplemented with 1% (w/v) of the examined carbohydrate (0.5% in the case of esculin) in 96-well microplate wells (Corning Costar, Corning, N.Y., USA) in duplicate or triplicate wells, respectively. The microplates were sealed with clear adhesive film, incubated at 37° C. in a Fluostar Optima microplate reader (BMG Labtech, Cary, N.C., USA), and the cell optical density (OD600) was monitored for 30 hours.
(§2) Construction of gene deletion mutants. The L. acidophilus NCFM genes LBA0225 and LBA0726, both encoding P-Bgl of glycoside hydrolase family 1 (GH1) enzymes in addition to the LBA0227 and LBA0725 genes encoding an EIIC and an EIICBA components of two PTS systems, respectively, were deleted using the upp-based counterselectable gene replacement system. Briefly, in-frame deletions were constructed by amplifying 650-750 bp of the up- and downstream flanking regions of the deletion targets with two primer pairs (e.g., LBA0225A/LBA0225B and LBA0225C/LBA0225D; Table 4). The resulting purified products were joined by splicing using overlap extension PCR (SOE-PCR63) and amplified to establish the deletion alleles. The SOE-PCR products, that include flanking restriction enzyme sites, were cloned within the BamHI and SacI/EcoRI sites of the pTRK935 integration vector and transformed into E. coli EC101. The resulting recombinant plasmids (pTRK1113-6) were confirmed by DNA sequencing and electroporated into L. acidophilus NCK1910 (Table 2) that contains the pTRK669 helper plasmid, and the recovery of the single- and double-crossover recombinants was performed as previously described. Recombinants carrying the new gene deletion alleles were isolated by colony PCR using primer pairs denoted up/down (e.g., LBA0225up/LBA0225down), which anneal to the flanking regions of the amplicons. Sequence integrity and in-frame deletions were verified by DNA sequencing employing the aforementioned primer pairs and primer denoted mid (e.g., LBA0225mid). The mutations were in-frame deletions of 90-96% of the coding regions.
To establish the functional significance of these two loci, single deletions of each PTS EII and P-Bgl gene, and a double deletion of both P-Bgl genes were constructed using the upp-based counter-selectable gene replacement system (Table 2) and the growth phenotypes of the mutant strains were analyzed (FIG. 3). Phenotypic growth analyses of deletion mutants of EII PTS transporters (FIGS. 3A, 3C, 3E, 3G, and 3I) and phospho-β-glucosidase (FIGS. 3B, 3D, 3F, 3H, and 3J) on the β-glucosides esculin, salicin, amygdalin and the disaccharides gentiobiose and cellobiose. The background Aupp strain is shown as a grey fill graph and the growth of the mutant strains is shown as: PTS EIIC (LBA0227, pink triangle), the phospho-β-glucosidase (LBA0225, light blue triangles), the PTS EIICBA (LBA0725, yellow squares), the second phospho-β-glucosidase (LBA0726, lilac squares) and the double phospho-β-glucosidase mutant (LBA0225/LBA0726, black stars). The color scheme is consistent with that used for the gene loci in FIG. 2.

NCK2418 (ΔLBA0227) = experiment: Phenotypic growth analysis of deletion mutant (PTS EIIC); format: cell-based, Lactobacillus acidophilus; conditions: compared with background Δupp strain
Protocol: as §1, §2
To establish the functional significance of these two loci, single deletions of each PTS EII and P-Bgl gene, and a double deletion of both P-Bgl genes were constructed using the upp-based counter-selectable gene replacement system (Table 2) and the growth phenotypes of the mutant strains were analyzed (FIG. 3). […]

[1] = system: L. intestinalis Th4, ATCC 49335, DSM 6629; experiment: Phenotypic growth assay (OD600); format: cell-based; conditions: SDM + 1% (w/v) carbohydrate (0.5% esculin), 37° C., 30 hours; corrected to medium without carbohydrate
Protocol: as §1

[2] = system: L. jensenii ATCC 25258, 62G, DSM 20557; experiment: Phenotypic growth assay (OD600); format: cell-based; conditions: SDM + 1% (w/v) carbohydrate (0.5% esculin), 37° C., 30 hours; corrected to medium without carbohydrate
Protocol: as §1

L. helveticus CNRZ32 = experiment: Phenotypic growth assay (OD600); format: cell-based; conditions: SDM + 1% (w/v) carbohydrate (0.5% esculin), 37° C., 30 hours; corrected to medium without carbohydrate
Protocol: as §1

L. gasseri ATCC 33323 = experiment: Phenotypic growth assay (OD600); format: cell-based; conditions: SDM + 1% (w/v) carbohydrate (0.5% esculin), 37° C., 30 hours; corrected to medium without carbohydrate
Protocol: as §1

L. johnsonii ATCC 33200 = experiment: Phenotypic growth assay (OD600); format: cell-based; conditions: SDM + 1% (w/v) carbohydrate (0.5% esculin), 37° C., 30 hours; corrected to medium without carbohydrate
Protocol: as §1

L. acidophilus NCFM = experiment: Plant glycoside uptake and metabolite analysis of L. acidophilus NCFM culture supernatants by UHPLC-DAD-Q-TOF-MS; format: cell-based, Lactobacillus acidophilus; conditions: for aglycone / main metabolite identified in culture supernatant: L. acidophilus NCFM growing on the glycoside, up to 24 h; for order of depletion from equimolar mixture of salicin, esculin and amygdalin: culture supernatants, 24 hours growth; for Catabolism based on MS: qualitative: depletion of the plant glycoside and/or appearance of its metabolites
Protocol: For initial growth and gene expression studies, L. acidophilus NCFM was propagated three times in semi-defined medium (SDM) supplemented with either 1% or 0,5% (w/v) of the plant glycoside or carbohydrate (Table 1). For the RNA-seq analysis, cells were harvested by centrifugation (3,220×10 min, 25° C.) in the mid-exponential phase (OD600=0.6-0.8) and stored at −80° C. for subsequent RNA isolation. For the mass spectrometry metabolite analyses, 200 μt samples were taken at 0, 3, 6, 9, 12, and 24 hours of growth; cells were removed by centrifugation; and supernatants were stored at −80° C. for further analysis.
Analysis of plant glycoside uptake from L. acidophilus NCFM culture supernatants using mass spectrometry. The supernatants of L. acidophilus NCFM cultures grown on amygdalin, arbutin, esculin or salicin as carbon sources were analyzed during 24 hours by ultra-high performance liquid chromatography-diode array detection-quadruple time of flight mass spectrometry (UHPLC-DAD-Q-TOF-MS). Samples were diluted 1:20 (v/v) with methanol and an injection volume of […] was used. Separation was carried out on an Agilent Poroshell 120 phenyl-hexyl column (2.1×150 mm, 2.7 μm) using the Agilent Infinity 1290 UHPLC system (Agilent Technologies, Santa Clara, Calif., USA) equipped with a UV/vis spectrum diode array detector. Separation was performed at 0.35 mL min-1., 60° C. with a linear gradient consisting of water (A) and acetonitrile (B) both buffered with 20 mM formic acid, starting at 10% B and increased to 100% in 15 min where it was held for 2 min, returned to 10% in 0.1 min and kept for 3 min. MS detection was performed on an Agilent 6550 iFunnel QTOF MS equipped with Agilent Dual Jet Stream electrospray ion source with the drying gas temperature of 160° C. and gas flow of 13 L min^−1, whereas the sheath gas temperature was 300° C. and flow was 16 L min-1. Ionization was conducted in ESI-mode with capillary voltage set to 4000 V and nozzle voltage to 500 V. Mass spectra were recorded as centroid data for m/z 85-1700 in MS mode with an acquisition rate of 10 spectra s^−1. To avoid carry-over, the needle seat was back-flushed for 15 s at 4 mL min-1 with each of: i) isopropanol: 0.2% ammonium hydroxide (w/v) in water (1:1 v/v); ii) acetonitrile with 2% formic acid (w/v); iii) water with 2% formic acid. Data was processed with the Agilent Mass Hunter Qualitative Analysis B.07.00 software package (Agilent Technologies) and molar concentrations were obtained from standard curves of the plant glycosides and their main metabolites. Targeted compound searches were performed using lists of previously identified compounds plus standard chemical modifications.

SMILES | reduction of growth on inactivation of the EIICBA (LBA0725) (NCK2422 (ΔLBA0725)) | growth of the ΔLBA0725 mutant (inactive PTS EIICBA) (NCK2422 (ΔLBA0725)) | growth of the ΔLBA0227 mutant (inactive EIIC) (NCK2418 (ΔLBA0227)) | Growth (OD600 max class) of L. intestinalis Th4, ATCC 49335, DSM 6629 [1] | Growth (OD600 max class) of L. jensenii ATCC 25258, 62G, DSM 20557 [2] | Growth (OD600 max class) of L. helveticus CNRZ32 (L. helveticus CNRZ32) | Growth (OD600 max class) of L. gasseri ATCC 33323 (L. gasseri ATCC 33323) | Growth (OD600 max class) of L. johnsonii ATCC 33200 (L. johnsonii ATCC 33200) | aglycone / main metabolite identified in culture supernatant (L. acidophilus NCFM) | order of depletion from equimolar mixture of salicin, esculin and amygdalin (L. acidophilus NCFM) | fraction of the initial glycoside utilized (L. acidophilus NCFM; during 24 hours growth, single carbon source) | Catabolism based on MS (L. acidophilus NCFM; growth concentration 1% (w/v)) | Catabolism based on MS (L. acidophilus NCFM; growth concentration 0.5% (w/v))
N#C[C@H](O[C@@H]1O[C@H](CO[C@@H]2O[C@H](CO)[C@@H](O)[C@H](O)[C@H]2O)[C@@H](O)[C@H](O)[C@H]1O)c1ccccc1 [Amygdalin] | about 50% | severely reduced | abolished | − (“−” signifies OD600 max < 0.1.) | + (“+” signifies 0.3 > OD600 max > 0.1.) | + (“+” signifies 0.3 > OD600 max > 0.1.) | − (“−” signifies OD600 max < 0.1.) | − (“−” signifies OD600 max < 0.1.) | benzaldehyde | significant amounts of amygdalin persisted after 24 hours | about a third | Yes | 
OCc1ccccc1O[C@@H]1O[C@H](CO)[C@@H](O)[C@H](O)[C@H]1O [Salicin] |  | abolished | invariant | − (“−” signifies OD600 max < 0.1.) | ++ (“++” signifies 0.6 > OD600 max > 0.3.) | − (“−” signifies OD600 max < 0.1.) | ++ (“++” signifies 0.6 > OD600 max > 0.3.) | + (“+” signifies 0.3 > OD600 max > 0.1.) | salicyl alcohol | first compound to be fully depleted |  | Yes | 
O=c1ccc2cc(O[C@@H]3O[C@H](CO)[C@@H](O)[C@H](O)[C@H]3O)c(O)cc2o1 [Esculin] |  | abolished | invariant | − (“−” signifies OD600 max < 0.1.) | ++ (“++” signifies 0.6 > OD600 max > 0.3.) | − (“−” signifies OD600 max < 0.1.) | ++ (“++” signifies 0.6 > OD600 max > 0.3.) | − (“−” signifies OD600 max < 0.1.) | esculetin |  |  |  | Yes
